From patent US11446307B2, “Crystalline forms of a deoxycytidine kinase inhibitor and uses thereof” (Trethera Corporation, priority 2020, dated 2022)

Key:
[1] = tested on: myelin oligodendrocyte glycoprotein (MOG)-induced experimental autoimmune encephalomyelitis (EAE); experiment: Mouse model of MOG-induced experimental autoimmune encephalomyelitis (EAE), prophylactic and therapeutic dosing; assay type: in vivo; conditions: 75 mg/kg P.O. BID Days 8-25 (therapeutic)
Method: Adult female C57BL/6J mice were randomly allocated to experimental groups and allowed to acclimatize for one week prior to commencing the study. On Day 0 and Day 7, animals were administered an emulsion (200 μL/mouse) of MOG35-55 and complete Freund's adjuvant (CFA). […]. On Day 0 (immediately post-MOG injection) and Day 2, animals were administered with pertussis toxin (PTx, 500 ng/mouse) prepared in phosphate buffered saline (PBS, 100 μL/mouse) by intra-peritoneal injection.
Treatment was performed twice daily (BID) prophylactically starting on Day 1 for groups 1, 2, and 4, and therapeutically starting on day 8 for group 3. All experimental groups were n=12. The administration interval was 12 hours and the administration volume was 5 mL/kg.
Because body weight loss is known to be an important hallmark of EAE occurring in correspondence of the appearance of the first symptoms, animals were weighed daily from the day of immunization (Day 0) until the end of the experiment. The changes in body weight observed over the course of the experiment for the different experimental groups, presented as mean±SEM, are summarized in FIG. 7. […]
From Day 0 until the end of the experiment, animals were scored daily for clinical signs of EAE to include paresis and paralysis affecting the tail and the limbs. […]

[2] = tested on: myelin oligodendrocyte glycoprotein (MOG)-induced experimental autoimmune encephalomyelitis (EAE); experiment: Variable dose mouse model of MOG-induced experimental autoimmune encephalomyelitis (EAE); assay type: in vivo; conditions: vehicle BID 18 days, Log-rank p=0.039
Method: 60 female C57BL/6 mice were housed for an acclimation period of 1 week. 53 mice were enrolled in the study after randomization with a body weight between 18.3-22.3 g with an average body weight of 19.7 g per group on Study day minus 1.
For induction of MOG-EAE, MOG35-55 peptide was administered in phosphate buffered saline (PBS) and complete Freund's adjuvant (CFA). MOG35-55 peptide in PBS was emulsified in a 1:1 (v:v) mixture with CFA via homogenization in an Omni BeadRuptor Elite using 7 mL tubes pre-filled with 2.8 mm ceramic beads. Briefly, MOG35-55 peptide was brought up to 1 mg/mL in cold PBS, and 1.75 mL aliquoted into each homogenization tube. An equal volume (1.75 mL) CFA was then added for a total volume of 3.5 mL, on ice. Two rounds of homogenization were performed using a speed of 3.5 m/s; 3 cycles of 45 seconds with 30 seconds dwell at 4° C., followed by a third round with 2 cycles of 45 seconds and 30 seconds dwell at 4° C. In between each round, samples were placed on ice for ˜15 minutes. Tubes were spun down at 300 g for 1 minute at 4° C. Mice were anesthetized under isoflurane anesthesia. 100 μL (50 μg MOG35-55) was then injected subcutaneously into the flank of each leg (for a total of two injections and 100 μg MOG35-55). On Study Day 0 and Day 2, pertussis toxin was formulated at a concentration of […] in PBS, and 100 μL (200 ng) injected into each animal by intraperitoneal injection.
Treatment was performed BID starting on Day 1 for groups 2, 3, and 4, and once daily (QD) starting on day 1 for group 5. All experimental groups were n=12. The administration interval was 12 hours and the administration volume was 5 mL/kg.
The Body condition score of all animals was monitored on study Days 0, 7, 10 and then every other day. […]
Disease severity was scored on Day 0, 7 and every 2 days beginning on Day 10 onward for all groups. […]
Disease incidence rate was calculated as percentage of total animals per group starting from day 0 until termination on study day 28. […]

[3] = Accelerated stability tests of polymorph Form II (HPLC purity and potency); assay type: physicochemical
Method: High-performance liquid chromatography (HPLC) was performed using the following instrument and/or conditions.

SMILES | animals showing no symptoms at all (complete remission) ([1]; after Day 20) [%] | disease incidence (highest reached) ([1]; on Day 19, vehicle reached 100% on Day 13) [%] | median time to disease ([2]; 25 mg/kg BID PO) [days] | median time to disease ([2]; 75 mg/kg BID PO) [days] | median time to disease ([2]; 100 mg/kg QD PO) [days] | Potency (%) ([3]; 25° C./60% RH for 1 week) | Purity (area %) ([3]; 25° C./60% RH for 1 week) | Potency (%) ([3]; 40° C./75% RH for 1 week) | Purity (area %) ([3]; 40° C./75% RH for 1 week) | Potency (%) ([3]; 60° C. for 1 week) | Purity (area %) ([3]; 60° C. for 1 week) | Potency (%) ([3]; API standard (no exposure)) | Purity (area %) ([3]; API standard (no exposure))
COc1ccc(-c2nc([C@@H](C)Sc3nc(N)cc(N)n3)c(C)s2)cc1OCCN1CCOCC1 [Compound 1, (R)-2-((1-(2-(4-methoxy-3-(2-morpholinoethoxy)phenyl)-5-methylthiazol-4-yl)ethyl)thio)pyrimidine-4,6-diamine] | ~27 | ~92 | 18 | 19 | 20 | – | – | – | – | – | – | – | –
COc1ccc(-c2nc([C@@H](C)Sc3nc(N)cc(N)n3)c(C)s2)cc1OCCN1CCOCC1 [polymorph Form II, (R)-2-((1-(2-(4-methoxy-3-(2-morpholinoethoxy)phenyl)-5-methylthiazol-4-yl)ethyl)thio)pyrimidine-4,6-diamine] | – | – | – | – | – | 98.7 | 98.75 | 98.6 | 98.66 | 98.6 | 98.75 | 98.6 | 98.22
